From patent US9234006B2, “Compounds” (Novacta Biosystems Limited, priority 2011, dated 2016)
Where a name gives a salt, the structure may show the parent alone. Where a SMILES comes first, the peptide text is derived from it. Bridges are numbered along the chain shown (N, C = ends). [ ]: non-standard residue; d: D form. The star is where a group is joined. ξ: configuration not given here. Thr(3ξ) = CC(O)[C@H](N)C(=O)O; Dab = NCC[C@H](N)C(=O)O; X1 = CCCCCCC(O)C(=O)*; GABA = NCCCC(=O)O

Legend:
[1] = tested on: K. pneumoniae ATCC 4352; assay: MIC susceptibility testing, broth microdilution in CaMHB; assay type: cell-based, Klebsiella pneumoniae
Procedure, shortened: (§1)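 Each strain is grown from fresh agar colonies overnight in CaMHB (37° C, 250 rpm), subcultured to OD600 0.2-0.3 and diluted 100-fold into fresh medium for inoculation. MICs are determined in duplicate.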

[2] = tested on: K. pneumoniae NCTC7427; assay: as above; assay type: cell-based, Klebsiella pneumoniae
Procedure, shortened: as §1

[3] = tested on: K. pneumoniae ATCCBAA-1706; assay: as above; assay type: cell-based, Klebsiella pneumoniae; conditions: Table 4
Procedure, shortened: as §1

[4] = tested on: K. pneumoniae NCTC8172; assay: as above; assay type: cell-based, Klebsiella pneumoniae
Procedure, shortened: as §1

[5] = tested on: A. baumannii ATCC19606; assay: as above; assay type: cell-based, Acinetobacter baumannii
Procedure, shortened: as §1

[6] = tested on: A. baumannii NCTC7844; assay: as above; assay type: cell-based, Acinetobacter baumannii
Procedure, shortened: as §1

[7] = tested on: E. coli NCTC9001; assay: as above; assay type: cell-based, Escherichia coli
Procedure, shortened: as §1

[8] = tested on: E. coli ATCC25922; assay: as above; assay type: cell-based, Escherichia coli
Procedure, shortened: as §1

[9] = tested on: E. coli ATCC700928; assay: as above; assay type: cell-based, Escherichia coli
Procedure, shortened: as §1

[10] = tested on: E. coli NCTC12900; assay: as above; assay type: cell-based, Escherichia coli
Procedure, shortened: as §1

[11] = tested on: P. aeruginosa ATCCCRM-9027; assay: as above; assay type: cell-based, Pseudomonas aeruginosa
Procedure, shortened: as §1

[12] = tested on: P. aeruginosa ATCC10145; assay: as above; assay type: cell-based, Pseudomonas aeruginosa
Procedure, shortened: as §1

[13] = tested on: P. aeruginosa ATCC27853; assay: as above; assay type: cell-based, Pseudomonas aeruginosa
Procedure, shortened: as §1

[14] = tested on: P. aeruginosa ATCC 9721; assay: as above; assay type: cell-based, Pseudomonas aeruginosa
Procedure, shortened: as §1

[15] = tested on: A. baumannii clinical isolates and resistant strains; assay type: cell-based; conditions: clinical isolates and resistant strains
Experimental: The in vitro antibacterial activities of the compounds of examples 2 and 6 were evaluated against a panel of […] Gram-negative bacterial isolates alongside Colistin. The panel consisted of 100 clinical isolates of each of A. baumannii, E. coli, K. pneumoniae and P. aeruginosa. The panel represented the current epidemiology in Europe and the USA and included a number of relevant strains with defined resistant phenotypes to current clinically-used antibacterial agents. These resistant strains included 20 A. baumannii, 22 E. coli, 25 K. pneumoniae and 20 P. aeruginosa strains.
All compounds were tested up to a maximum concentration of 64 μg/mL with the exception of colistin, which was evaluated up to a maximum concentration of 16 μg/mL.

[16] = Pharmacokinetic and urinary clearance studies in rats; assay type: in vivo
Experimental: Drug solutions were prepared at 4 mg/mL in Normal Saline and the pH adjusted to 6-7 by adding the appropriate volume of 0.1 M H2SO4 or 4.2% NaHCO3. The solutions were filter-sterilized and stored at −80° C. before use. On the day of the experiment, drug solutions were diluted to 1 mg/mL with sterile Normal Saline.
Groups of 3 male Sprague Dawley rats were acclimatised for a minimum of 4 days before the study. Rats were anesthetized using isofluorane and a cannula was inserted into the jugular vein. One day after surgery, rats were dosed with an intravenous bolus injection of the solution at 1 mg/kg through the cannula, followed by washing with Normal Saline. Blood was collected manually through the cannula prior to administration of the compound and at 0.08, 0.25, 0.5, 1, 3, 6, 8 and 24 h thereafter. Plasma was harvested by centrifugation immediately after blood collection. Twenty-four hour urine samples were collected prior to and after administration of the compound in 0-4 h, 4-6 h, and 6-24 h intervals. Plasma and urine samples were frozen at −20° C.
Determination of the plasma and urine concentrations of the drug was performed by Liquid Chromatography Mass Spectrometry (LC-MS/MS). Before analysis the plasma and urine samples were prepared as follows. Plasma samples were thawed on the day of analysis and mixed with 3 volumes of acetonitrile containing 0.1% (v/v) formic acid and 100 ng/mL of internal standard. After centrifugation, supernatants were transferred to a 96-well plate and diluted 1:1 with water ready for analysis by LC-MS/MS. Urine samples were purified by solid-phase extraction (SPE) on Oasis HLB cartridges (Waters, UK) eluting with 100% methanol. An aliquot was transferred to a 96 well plate and diluted 1:1 with water before addition of internal standard solution, ready for analysis by LC-MS/MS.
The pharmacokinetic parameters were determined by non-compartmental analysis using WinNonLin v5.3. The urinary recovery was recorded as the percentage of intact drug recovered in the urine for the first 24 h after injection.

[17] = K. pneumoniae ATCC 4352, Table 4
[18] = K. pneumoniae ATCC4352, Table 4A, different batches of cation-adjusted Muller-Hinton broth
[19] = Table 4A, different batches of cation-adjusted Muller-Hinton broth
[20] = P. aeruginosa AATCCRM 9027, Table 4A, different batches of cation-adjusted Muller-Hinton broth
[21] = P. aeruginosa ATCCCRM-9027, Table 4
[22] = P. aeruginosa ATCC 9721, Table 4
[23] = P. aeruginosa ATCC9721, Table 4A, different batches of cation-adjusted Muller-Hinton broth
[24] = male, Sprague Dawley, rat, in vivo, iv, 1 mg/kg
[25] = male Sprague Dawley rats, intravenous bolus 1 mg/kg
[26] = male Sprague Dawley rats, intravenous bolus 1 mg/kg, plasma

Molecule | MIC [1, 17] [micrograms/mL] | MIC [1, 18] [micrograms/mL] | MIC ([2]; Table 4) [micrograms/mL] | MIC [2, 19] [micrograms/mL] | MIC [3] [micrograms/mL] | MIC [4, 19] [micrograms/mL] | MIC ([5]; Table 4) [micrograms/mL] | MIC [5, 19] [micrograms/mL] | MIC ([6]; Table 4) [micrograms/mL] | MIC [6, 19] [micrograms/mL] | MIC ([7]; Table 4) [micrograms/mL] | MIC [7, 19] [micrograms/mL] | MIC ([8]; Table 4) [micrograms/mL] | MIC [8, 19] [micrograms/mL] | MIC ([9]; Table 4) [micrograms/mL] | MIC [9, 19] [micrograms/mL] | MIC [10, 19] [micrograms/mL] | MIC [11, 20] [micrograms/mL] | MIC [11, 21] [micrograms/mL] | MIC ([12]; Table 4) [micrograms/mL] | other results
CC(C)C[C@@H]1NC(=O)[C@@H](Cc2ccccc2)NC(=O)[C@H](CCN)NC(=O)[C@@H](NC(=O)[C@H](CCN)NC(=O)[C@@H](NC(=O)CCCN)[C@@H](C)O)CCNC(=O)[C@H]([C@@H](C)O)NC(=O)[C@H](CCN)NC(=O)[C@H](CCN)NC1=O [Example 6, 4-Aminobutanoyl Polymyxin B Nonapeptide, Sulphate Salt] (H-[GABA]T[Dab][Dab][Dab][dF]L[Dab][Dab]T; lactam 4-C) | 0.125 | 1 | 0.125 | 0.125 | 0.25 | 16 | 0.25 | 4 | 2 | 2 | 1 | 8 | 0.5 | 2 | 0.125 | 2 | 8 | 0.25 | 0.125 | 0.25 | MIC ([10]; Table 4): 2 micrograms/mL; MIC [12, 19]: 0.5 micrograms/mL; MIC ([13]; Table 4): 0.25 micrograms/mL; MIC [13, 19]: 0.25 micrograms/mL; MIC [14, 22]: 0.125 micrograms/mL; MIC [14, 23]: 0.125 micrograms/mL; MIC50 Clinical isolates [15]: 2 µg/mL; MIC50 Resistant strains [15]: 2 µg/mL; MIC90 Clinical isolates [15]: 8 µg/mL; MIC90 Resistant strains [15]: 4 µg/mL; MIC Range Resistant strains [15]: 1 to 4 µg/mL; AUC(0-inf) [16, 24]: 2620 ng·h/mL; Cmax [16, 24]: 3580 ng/mL; Vd [16, 24]: 0.289 L/kg; clearance [16, 24]: 6.43 mL/min/kg; half-life [16, 24]: 33.6 min
CCCCCCC(O)C(=O)N[C@H](C(=O)N[C@@H](CCN)C(=O)N[C@H]1CCNC(=O)[C@H](C(C)O)NC(=O)[C@H](CCN)NC(=O)[C@H](CCN)NC(=O)[C@H](CC(C)C)NC(=O)[C@@H](Cc2ccccc2)NC(=O)[C@H](CCN)NC1=O)C(C)O (stereo partly drawn) [Example 2, [2(R,S)-2-Hydroxyoctanoyl] Polymyxin B Nonapeptide, Sulphate Salt] (X1-[Thr(3ξ)][Dab][Dab][Dab][dF]L[Dab][Dab][Thr(3ξ)]; lactam 3-C) | 0.5 | 1 | 4 | 0.5 | 0.5 | 4 | 2 | 2 | 2 | 4 | 0.25 | 2 | 1 | 2 | 0.25 | 0.5 | 8 | 0.5 | 0.25 | 1 | MIC ([4]; Table 4): 4 micrograms/mL; MIC ([10]; Table 4): 0.25 micrograms/mL; MIC [12, 19]: 1 micrograms/mL; MIC ([13]; Table 4): 0.5 micrograms/mL; MIC [13, 19]: 0.5 micrograms/mL; MIC [14, 22]: 2 micrograms/mL; MIC [14, 23]: 0.5 micrograms/mL; MIC50 Clinical isolates [15]: 4 µg/mL; MIC50 Resistant strains [15]: 4 µg/mL; MIC90 Clinical isolates [15]: 8 µg/mL; MIC90 Resistant strains [15]: 4 µg/mL; MIC Range Clinical isolates [15]: 1 to 32 µg/mL; MIC Range Resistant strains [15]: 2 to 4 µg/mL; AUC(0-inf) [16, 24]: 4010 ng·h/mL; Cmax [16, 24]: 2400 ng/mL; Vd [16, 24]: 0.488 L/kg; clearance [16, 24]: 4.18 mL/min/kg; half-life [16, 24]: 80.4 min
Polymyxin B [reference compound] | 0.5 | 0.25 | 0.25 | 0.25 | 0.25 | 1 | 0.5 | 0.125 | 0.25 | 0.25 | 0.25 | 0.25 | 0.5 | 1 | 0.25 | 0.25 | 0.25 | 0.25 | 0.25 | 0.5 | MIC ([4]; Table 4): 0.5 micrograms/mL; MIC [12, 19]: 1 micrograms/mL; MIC ([13]; Table 4): 0.5 micrograms/mL; MIC [13, 19]: 0.5 micrograms/mL; MIC [14, 22]: 0.5 micrograms/mL; MIC [14, 23]: 0.125 micrograms/mL; CL (clearance) [16, 25]: 429 mL/h/kg; Vd [16, 25]: 1.12 L/kg; AUC(0-inf) [16, 26]: 2372 ng·h/mL; Cmax [16, 26]: 1455 ng/mL; t1/2 [16, 26]: 1.94 h; Urinary recovery ([16]; male Sprague Dawley rats, intravenous bolus 1 mg/kg, intact drug in urine in first 24 h): 0.3 % dose
